In US20120184514A1, “VITAMIN D COMPOUNDS AND METHODS FOR PREPARING SAME” (Vitamin Derivatives Inc., priority 2009, published 2012):

Assay: Thermogravimetric analysis of a 1α-hydroxy-vitamin D3 sample
Assay type: physicochemical
Settings: heated under nitrogen at 10 °C/min
Method: Thermogravimetric analysis of a 1α-hydroxy-vitamin D3 sample was performed using a TA Instruments 2950 thermogravimetric analyzer (available from TA Instruments of New Castle, Del.). The sample was placed in an aluminum sample pan and inserted into the thermogravimetric furnace. The furnace was heated under nitrogen at a rate of 10 ° C./min, from room temperature to a final temperature of 350° C. Nickel and Alumel™ (available from Hoskins Manufacturing Company, Novi, Mich.) were used as calibration standards. […] (See FIG. 6).

C=C1/C(=C\C=C2/CCC[C@]3(C)[C@@H]([C@H](C)CCCC(C)C)CC[C@@H]23)C[C@@H](O)C[C@@H]1O [1α-hydroxy-vitamin D3, 1α, 3β,5Z,7E-9,10-secocholesta-5,7,10(19)-triene-1,3-diol]
weight loss (thermogravimetric thermogram) (from 25° C. to 150° C.): 0.09% | decomposition temperature (thermogravimetric thermogram) (room temperature to 350° C.): > 200 °C
